Test results taken from patent publication US20240108745A1, “BIOACTIVE SUBSTANCE CONJUGATE, PREPARATION METHOD THEREFOR AND USE THEREOF” (MEDILINK THERAPEUTICS (SUZHOU) CO., LTD., priority 2021, published 2024).

Assays:
Assay type in all cases: cell-based
HT29 cells [1] = assay: Assay I of bioactive molecules on cell viability in vitro (CCK8); conditions: Homo sapiens, HT-29, CCK8; read-out: EC50(nM), killing of HT29 cells
Method: (§1) Tumor cells were first cultured; the bioactive molecules of the present disclosure were co-cultured with tumor cells, and then CCK8 reagent (Dojindo Laboratories (Shanghai), Cat: CK04, Lot: JJ744) was added, and the activity of dehydrogenase in mitochondria was detected by reading (detection wavelength 450 nm) on a microplate reader (manufacturer: Molecular Devices, model: SpectraMax M2), to evaluate the inhibitory effect of bioactive molecules on cell proliferation.
(§2) In vitro cell viability assay method: bioactive molecules (12 concentration gradients) were diluted with corresponding assay medium (containing 2% FBS). The tumor cells were digested by conventional methods using trypsin, and cells in tube were collected and counted, then resuspended in the corresponding assay media (containing 2% FBS). The diluted bioactive molecules were added to a 96-well plate, followed by the cells. Then, 20 μL of CCK8 reagent was added to each well, and the reaction was carried out for 4 h, then the plate was read on a microplate reader (detection wavelength was 450 nm). The experimental results are shown in Tables 6.1, 6.2, 6.3, 6.4, and 6.5.

NCl-H358 cells = assay: as above; conditions: Homo sapiens, read-out: EC50(nM), killing of NCl-H358 cells
Method: as §1, §2

LS174T cells = assay: as above; conditions: Homo sapiens, read-out: EC50(nM), killing of LS174T cells
Method: as §1, §2

HT29 cells [2] = assay: Assay III of bioactive molecules on cell viability in vitro (CCK8); conditions: Homo sapiens, HT-29; CCK8, 3-4 days (Assay III); read-out: EC50(nM), killing of HT29 cells
Method: Tumor cells HT29 (having a same source as the above) were first cultured. The bioactive molecules or fragments of the present disclosure were co-cultured with tumor cells, and then CCK8 reagent (Dojindo Laboratories (Shanghai), Cat: CK04, Lot: JJ744) was added, and the activity of dehydrogenase in mitochondria was detected by reading (detection wavelength 450 nm) on a microplate reader (manufacturer: Molecular Devices, model: SpectraMax M2), to evaluate the inhibitory effect of bioactive molecules on cell proliferation.
(§3) In vitro cell viability assay method: the tumor cells were digested by conventional methods using trypsin, and cells in tube were collected and counted, and then resuspended in the corresponding assay media (containing 2% FBS), which was added to a 96-well plate at 5000-10000 cells/well. Bioactive molecules were diluted with DMSO, and then added to a 96-well plate at 100 μL, the initial concentration was 10M, followed by 3-fold serial dilution (12 concentration gradients). The plate was incubated for 3-4 days at 37° C. under 5% CO2. Then, 20 μL of CCK8 reagent was added to each well, and the reaction was carried out for 2-6 h. The plate was read on a microplate reader (detection wavelength was 450 nm).

A431 = assay: Assay II of bioactive molecules on cell viability in vitro (CCK8); conditions: Homo sapiens, A-431; CCK8, 3-4 days
Method: as §1, with “Tumor cells NUCG-4, PC-9, HT29, NCI-H358, KYSE520, A431 and A549 were first” for “Tumor cells were first”, “bioactive molecules or fragments of the” for “bioactive molecules of the”
as §3, with “and then 100 μL was added to” for “and then added to”, “a 96-well plate, the initial” for “a 96-well plate at 100 μL, the initial”, “concentration was 10 μM, followed by” for “concentration was 10M, followed by”

A549 = assay: as above; conditions: Homo sapiens, CCK8, 3-4 days
Method: as §1, with “Tumor cells NUCG-4, PC-9, HT29, NCI-H358, KYSE520, A431 and A549 were first” for “Tumor cells were first”, “bioactive molecules or fragments of the” for “bioactive molecules of the”
as §3, with “and then 100 μL was added to” for “and then added to”, “a 96-well plate, the initial” for “a 96-well plate at 100 μL, the initial”, “concentration was 10 μM, followed by” for “concentration was 10M, followed by”

HT29 = assay: as above; conditions: Homo sapiens, HT-29; CCK8, 3-4 days
Method: as §1, with “Tumor cells NUCG-4, PC-9, HT29, NCI-H358, KYSE520, A431 and A549 were first” for “Tumor cells were first”, “bioactive molecules or fragments of the” for “bioactive molecules of the”
as §3, with “and then 100 μL was added to” for “and then added to”, “a 96-well plate, the initial” for “a 96-well plate at 100 μL, the initial”, “concentration was 10 μM, followed by” for “concentration was 10M, followed by”

NCI-H358 = assay: as above; conditions: Homo sapiens, CCK8, 3-4 days
Method: as §1, with “Tumor cells NUCG-4, PC-9, HT29, NCI-H358, KYSE520, A431 and A549 were first” for “Tumor cells were first”, “bioactive molecules or fragments of the” for “bioactive molecules of the”
as §3, with “and then 100 μL was added to” for “and then added to”, “a 96-well plate, the initial” for “a 96-well plate at 100 μL, the initial”, “concentration was 10 μM, followed by” for “concentration was 10M, followed by”

NUCG-4 = assay: as above; conditions: CCK8, 3-4 days
Method: as §1, with “Tumor cells NUCG-4, PC-9, HT29, NCI-H358, KYSE520, A431 and A549 were first” for “Tumor cells were first”, “bioactive molecules or fragments of the” for “bioactive molecules of the”
as §3, with “and then 100 μL was added to” for “and then added to”, “a 96-well plate, the initial” for “a 96-well plate at 100 μL, the initial”, “concentration was 10 μM, followed by” for “concentration was 10M, followed by”

PC-9 = assay: as above; conditions: Homo sapiens, CCK8, 3-4 days
Method: as §1, with “Tumor cells NUCG-4, PC-9, HT29, NCI-H358, KYSE520, A431 and A549 were first” for “Tumor cells were first”, “bioactive molecules or fragments of the” for “bioactive molecules of the”
as §3, with “and then 100 μL was added to” for “and then added to”, “a 96-well plate, the initial” for “a 96-well plate at 100 μL, the initial”, “concentration was 10 μM, followed by” for “concentration was 10M, followed by”

SMILES	EC50 (HT29 cells [1])	EC50 (NCl-H358 cells)	other results
CC[C@@]1(O)C(=O)OCc2c1cc1n(c2=O)Cc2c-1nc1cc3c(cc1c2-c1ccc(N)cc1)OCO3 [Example A1.4, (S)-14-(4-aminophenyl)-7-ethyl-7-hydroxy-10,13-dihydro-11H-[1,3]dioxolo[4,5-g]pyrano[3′,4′:6,7]indolizino[1,2-b]quinolin-8,11(7H)-dione]	29.4 nM	29.9 nM	
CC[C@@]1(O)C(=O)OCc2c1cc1n(c2=O)Cc2c-1nc1cc3c(cc1c2CCN(C(=O)CO)C(C)C)OCO3 [Example A1.8, (S)—N-(2-(7-ethyl-7-hydroxy-8,11-dioxo-7,8,11,13-tetrahydro-10H-[1,3]dioxolo[4,5-g]pyrano[3′,4′:6,7]indolizino[1,2-b]quinolin-14-yl)ethyl)-2-hydroxy-N-isopropylacetamide]	367 nM	296 nM	
CC[C@@]1(O)C(=O)OCc2c1cc1n(c2=O)Cc2c-1nc1cc3c(cc1c2CCNC(C)C)OCO3 [Example A1.8D, (S) 7-ethyl-7-hydroxy-14-(2-(isopropylamine)ethyl)-10,13-dihydro-11H-[1,3]dioxolo[4,5-g]pyrano[3′,4′:6,7]indolizino[1,2-b]quinolin-8,11(7H)-dione]		7.92 nM	
CC[C@@]1(O)C(=O)OCc2c1cc1n(c2=O)Cc2c-1nc1cc(F)c(C)cc1c2CCCO [Example A1.10, (S)-4-ethyl-8-fluoro-4-hydroxy-11-(3-hydroxypropyl)-9-methyl-1,12-dihydro-14H-pyrano[3′,4′:6,7]indolizino[1,2-b]quinolin-3,14(4H)-dione]	5.96 nM	8.11 nM	
CC[C@@]1(O)C(=O)OCc2c1cc1n(c2=O)Cc2c-1nc1cc(F)c(C)cc1c2CCCN [Example A1.11, (S)-4-ethyl-8-fluoro-4-hydroxy-11-(3-aminopropyl)-9-methyl-1,12-dihydro-14H-pyrano[3′,4′:6,7]indolizino[1,2-b]quinolin-3,14(4H)-dione]	284 nM	203 nM	
CC[C@@]1(O)C(=O)OCc2c1cc1n(c2=O)Cc2c-1nc1cc3c(cc1c2/C=C/CN)OCO3 [Example A1.12, (S,E)-14-(3-amino-1-propylen-1-yl)-7-ethyl-7-hydroxy-10,13-dihydro-11H-[1,3]dioxolo[4,5-g]pyrano[3′,4′:6,7]indolizino[1,2-b]quinolin-8,11(7H)-dione]	212 nM	167 nM	
CC[C@@]1(O)C(=O)OCc2c1cc1n(c2=O)Cc2c-1nc1cc3c(cc1c2/C=C/CO)OCO3 [Example A1.13, (S,E)-14-(3-hydroxy-1-propylen-1-yl)-7-ethyl-7-hydroxy-10,13-dihydro-11H-[1,3]dioxolo[4,5-g]pyrano[3′,4′:6,7]indolizino[1,2-b]quinolin-8,11(7H)-dione]	96.8 nM	49.2 nM	
CC[C@@]1(O)C(=O)OCc2c1cc1n(c2=O)Cc2c-1nc1cc(F)c(C)cc1c2/C=C/CO [Example A1.14, (S,E)-4-ethyl-8-fluoro-4-hydroxy-11-(3-hydroxy-1-propylen-1-yl)-9-methyl-1,12-dihydro-14H-pyrano[3′,4′:6,7]indolizino[1,2-b]quinolin--3,14(4H)-dione]	156 nM	123 nM	
CCCNCCc1c2c(nc3cc4c(cc13)OCO4)-c1cc3c(c(=O)n1C2)COC(=O)[C@]3(O)CC [Example A1.15a, (S)-7-ethyl-7-hydroxy-14-(2-(n-propylamino)ethyl)-10,13-dihydro-11H-[1,3]dioxolo[4,5-g]pyrano[3′,4′:6,7]indolizino[1,2-b]quinolin-8,11(7H)-dione]	3.57 nM	3.88 nM	EC50 (LS174T cells): 19.5 nM
CCCN(CCc1c2c(nc3cc4c(cc13)OCO4)-c1cc3c(c(=O)n1C2)COC(=O)[C@]3(O)CC)C(=O)CO [Example A1.15b, (S)—N-(2-(7-ethyl-7-hydroxy-8,11-dioxo-7,8,11,13-tetrahydro-10H-[1,3]dioxolo[4,5-g]pyrano[3′,4′:6,7]indolizino[1,2-b]quinolin-14-yl)ethyl)-2-hydroxy-N-n-propylacetamide]	47.5 nM		EC50 (LS174T cells): 44.6 nM
CC[C@@]1(O)C(=O)OCc2c1cc1n(c2=O)Cc2c-1nc1cc3c(cc1c2-c1ccc(NC(=O)CN)cc1)OCO3 [Example B1.9, (S)-2-amino-N-(4-(7-ethyl-7-hydroxy-8,11-dioxo-7,8,11,13-tetrahydro-10H-[1,3]dioxolo[4,5-g]pyrano[3′,4′:6,7]indolizino[1,2-b]quinolin-14-yl)phenyl)acetamide]			EC50 (HT29 cells [2]): 262 nM
CC[C@@]1(O)C(=O)OCc2c1cc1n(c2=O)Cc2c-1nc1cc(F)c(C)cc1c2CCCOCNC(=O)CN [Example B1.12, (S)-2-amino-N-((4-(4-ethyl-8-fluoro-4-hydroxy-9-methyl-3,14-dioxo-3,4,12,14-tetrahydro-1H-pyrano[3′,4′:6,7]indolizino[1,2-b]quinolin-11-yl)propoxy)methyl)acetamide]			EC50 (HT29 cells [2]): 85.9 nM
CC[C@@]1(O)C(=O)OCc2c1cc1n(c2=O)Cc2c-1nc1cc3c(cc1c2CCCOCNC(=O)CN)OCO3 [Example B1.14, (S)-2-amino-N-((3-(7-ethyl-7-hydroxy-8,11-dioxo-7,8,11,13-tetrahydro-10H-[1,3]dioxolo[4,5-g]pyrano[3′,4′:6,7]indolizino[1,2-b]quinolin-14-yl)propoxy)methyl)acetamide]			EC50 (A431): 68 nM; EC50 (A549): 252 nM; EC50 (HT29): 368 nM; EC50 (NCI-H358): 581 nM; EC50 (NUCG-4): 185 nM; EC50 (PC-9): 34.3 nM
CC[C@@]1(O)C(=O)OCc2c1cc1n(c2=O)Cc2c-1nc1cc(F)c(C)cc1c2/C=C/COCNC(=O)CN [Example B1.17, (S,E)-2-amino-N-(((3-(4-ethyl-8-fluoro-4-hydroxy-9-methyl-3,14-oxo-3,4,12,14-tetrahydro-1H-pyrano[3′,4′:6,7]indolizino[1,2-b]quinolin-11-yl)allyl)oxy)methyl)acetamide]			EC50 (HT29 cells [2]): 205 nM
